Measured values as given in ChEMBL document CHEMBL1275353, “4-Phenylcoumarins from Mesua elegans with acetylcholinesterase inhibitory activity” (Bioorg Med Chem, 2010).

molecular target: Acetylcholinesterase (Electrophorus electricus, UniProt O42275)
Sequence (O42275 whole entry): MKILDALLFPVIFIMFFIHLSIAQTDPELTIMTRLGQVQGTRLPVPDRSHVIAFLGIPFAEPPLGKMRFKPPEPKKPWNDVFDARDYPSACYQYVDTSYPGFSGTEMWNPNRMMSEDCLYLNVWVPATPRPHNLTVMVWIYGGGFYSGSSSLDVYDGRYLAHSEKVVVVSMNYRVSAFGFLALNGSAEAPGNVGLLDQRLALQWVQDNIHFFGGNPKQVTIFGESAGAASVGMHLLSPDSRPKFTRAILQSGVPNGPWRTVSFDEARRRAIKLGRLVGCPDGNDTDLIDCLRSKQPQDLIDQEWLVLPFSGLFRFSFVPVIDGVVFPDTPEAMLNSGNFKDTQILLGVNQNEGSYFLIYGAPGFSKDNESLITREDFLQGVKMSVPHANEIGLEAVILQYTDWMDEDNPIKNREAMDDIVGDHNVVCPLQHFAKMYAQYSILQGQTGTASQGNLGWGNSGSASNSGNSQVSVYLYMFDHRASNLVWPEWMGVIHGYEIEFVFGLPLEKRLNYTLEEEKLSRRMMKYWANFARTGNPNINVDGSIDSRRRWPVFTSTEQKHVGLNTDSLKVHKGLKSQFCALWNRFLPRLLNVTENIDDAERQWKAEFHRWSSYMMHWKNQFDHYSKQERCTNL
Description: Inhibition of Electrophorus electricus AChE after 120 secs by Ellman spectroscopic method

`CC(C)=CCC/C(C)=C/Cc1c(O)c(C(=O)CC(C)C)c2oc(=O)cc(-c3ccccc3)c2c1O` and `CC(C)=CCC/C(C)=C/Cc1c(O)c(C(=O)C(C)C)c2oc(=O)cc(-c3ccccc3)c2c1O` [MESUAGENIN C] cannot be ordered by IC50: greater than 20 µM for the first, greater than 20 µM for the second.

Going from `CCC(C)C(=O)c1c(O)c(C/C=C(\C)CCC=C(C)C)c(O)c2c(-c3ccccc3)cc(=O)oc12` (centres undefined) to `CC(C)=CCc1c(O)c(C(=O)CC(C)C)c2oc(=O)cc(-c3ccccc3)c2c1O` [ISOMAMMEISIN], the IC50 rises from 3.06 µM to greater than 20 µM. The first is the more potent here.

First: CC(C)CC(=O)c1c(O)c2c(c3c(-c4ccccc4)cc(=O)oc13)OC(C(C)(C)O)C2 (centres undefined)
Second: CC(C)CCC(C)(O)C1(C)Cc2c(O)c(C(=O)CC(C)C)c3oc(=O)cc(-c4ccccc4)c3c2O1 (centres undefined) [MESUAGENIN D]
The IC50 of the first is higher: greater than 20 µM for the first, 8.73 µM for the second. The second is the more potent here.

Compared with `CC(C)CC(=O)c1c(O)c2c(c3c(-c4ccccc4)cc(=O)oc13)OC(C)(C)C=C2` [ISOMAMMEIGIN], `CC(C)=CCCC1(C)C=Cc2c(O)c(C(=O)CC(C)C)c3oc(=O)cc(-c4ccccc4)c3c2O1` (centres undefined) [MESUAGENIN A] is lower in IC50: greater than 20 µM for the first, 1.06 µM for the second. The second is the more potent here.

`CCC(C)C(=O)c1c(O)c2c(c3c(-c4ccccc4)cc(=O)oc13)OC(C)(CCC=C(C)C)C=C2` (centres undefined) [MESUAGENIN B] was tested, and the IC50 was 0.7 µM.
